Test results as given in US4398029A, “Quinoline carboxylic acid derivatives and process for the preparation” (Kyorin Seiyaku Kabushiki Kaisha, priority 1981, dated 1983).
Values after ≈ are worked out from the molar mass of the structure shown. Where two headings read alike, the source gives them in different places.

Legend:
[1] = system: gram-negative bacteria; details: prior art statement; cited from earlier work
[2] = system: Pseudomonas aeruginosa; details: prior art statement; cited from earlier work
[3] = system: gram-positive bacteria; details: prior art statement; cited from earlier work
[4] = system: S. aureus Terajima; assay: Antibacterial activity (MIC), standard agar dilution streak method; type: cell-based, Staphylococcus aureus; details: Staphylococcus aureus; S. aureus Terajima; read-out: Minimum inhibitory concentration
Method: (§1) The antibacterial activities of the compounds of the present invention were assayed by the standard agar dilution streak method against Gram-positive and Gram-negative bacteria [Chemotherapy, 22, 1126 (1974)].

[5] = system: Klebsiella pneumoniae IFO 3512; assay: as above; type: cell-based; details: Klebsiella pneumoniae, IFO3512, Klebsiella pneumoniae IFO 3512; read-out: Minimum inhibitory concentration
Method: as §1

[6] = system: S. epidermidis IID 866; assay: as above; type: cell-based; details: Staphylococcus epidermidis, IID866, read-out: Minimum inhibitory concentration
Method: as §1

[7] = system: Bacillus subtilis PCI 219; assay: as above; type: cell-based; details: PCI219; Bacillus subtilis PCI 219; read-out: Minimum inhibitory concentration
Method: as §1

[8] = system: P. morganii IID 602; assay: as above; type: cell-based; details: Morganella morganii, IID602, P. morganii IID 602; read-out: Minimum inhibitory concentration
Method: as §1

[9] = system: Yersinia enterocolitica IID 981; assay: as above; type: cell-based; details: Yersinia enterocolitica, IID981, Yersinia enterocolitica IID 981; read-out: Minimum inhibitory concentration
Method: as §1

[10] = system: Salmonella enteritidis IID 604; assay: as above; type: cell-based; details: Salmonella enterica; Salmonella enteritidis IID 604; read-out: Minimum inhibitory concentration
Method: as §1

[11] = system: P. mirabilis IID 994; assay: as above; type: cell-based; details: Proteus mirabilis, IID994; P. mirabilis IID 994; read-out: Minimum inhibitory concentration
Method: as §1

[12] = system: Proteus vulgaris 3167; assay: as above; type: cell-based; details: Proteus vulgaris, 3167, Proteus vulgaris 3167; read-out: Minimum inhibitory concentration
Method: as §1

[13] = system: Enterobacter cloacae IID 977; assay: as above; type: cell-based; details: read-out: Minimum inhibitory concentration
Method: as §1

[14] = system: Acinetobacter anitratus IID 876; assay: as above; type: cell-based; details: Acinetobacter calcoaceticus, IID876, read-out: Minimum inhibitory concentration
Method: as §1

[15] = system: Citrobacter freundii IID 976; assay: as above; type: cell-based; details: Citrobacter freundii, IID976, Citrobacter freundii IID 976; read-out: Minimum inhibitory concentration
Method: as §1

[16] = system: Serratia marcescens IID 618; assay: as above; type: cell-based; details: Serratia marcescens, IID618, Serratia marcescens IID 618; read-out: Minimum inhibitory concentration
Method: as §1

[17] = system: Escherichia coli NIHJ JC-2; assay: as above; type: cell-based; details: Escherichia coli, NIHJJC2, Escherichia coli NIHJ JC-2; read-out: Minimum inhibitory concentration
Method: as §1

[18] = system: Alcaligenes faecalis 0104002; assay: as above; type: cell-based; details: Alcaligenes faecalis, 0104002, Alcaligenes faecalis 0104002; read-out: Minimum inhibitory concentration
Method: as §1

[19] = system: Staphylococcus aureus 209 p; assay: as above; type: cell-based; details: Staphylococcus aureus 209 p; read-out: Minimum inhibitory concentration
Method: as §1

[20] = system: Pseudomonas aeruginosa V-1; assay: as above; type: cell-based; details: V1; Pseudomonas aeruginosa V-1; read-out: Minimum inhibitory concentration
Method: as §1

[21] = system: P. aeruginosa IFO 12689; assay: as above; type: cell-based, Pseudomonas aeruginosa; details: Pseudomonas aeruginosa, IFO12689, P. aeruginosa IFO 12689; read-out: Minimum inhibitory concentration
Method: as §1

[22] = system: E. coli ATCC 10536; assay: as above; type: cell-based, Escherichia coli; details: Escherichia coli, ATCC10536, read-out: Minimum inhibitory concentration
Method: as §1

[23] = system: Shigella sonnei IID 969; assay: microbe, parasite or virus in culture; type: cell-based; details: Shigella sonnei, IID969, Shigella sonnei IID 969; read-out: Minimum inhibitory concentration
Method: as §1

Row | Structure (SMILES) | effectiveness in the therapy of infections due to gram-negative bacteria [1] | activities against Pseudomonas aeruginosa [2] | activities against most gram-positive bacteria [3] | MIC [4] [µg/mL] | MIC [5] [µg/mL] | MIC [6] [µg/mL] | MIC [7] [µg/mL] | MIC [8] [µg/mL] | MIC [9] [µg/mL] | MIC [10] [µg/mL] | MIC [11] [µg/mL] | MIC [12] [µg/mL] | MIC [14] [µg/mL] | MIC [15] [µg/mL] | MIC [16] [µg/mL] | MIC [17] [µg/mL] | MIC [18] [µg/mL] | MIC [19] [µg/mL] | MIC [20] [µg/mL] | MIC [21] [µg/mL] | further results
1 | CCn1cc(C(=O)O)c(=O)c2cnc(N3CCNCC3)nc21 [pipemidic acid] | highly effective | weak activities | weak activities | – | – | – | – | – | – | – | – | – | – | – | – | – | – | – | – | – | –
2 | C=CCN1CCN(c2c(F)cc3c(=O)c(C(=O)O)cn(CC)c3c2F)CC1 [Example 6, 7-(4-Allyl-1-piperazinyl)-1-ethyl-6,8-difluoro-1,4-dihydro-4-oxoquinoline-3-carboxylic acid] | – | – | – | 0.78 (≈ 2.07 µM) | ≤ 0.05 | 0.78 (≈ 2.07 µM) | 0.1 (≈ 0.265 µM) | 0.78 (≈ 2.07 µM) | 0.78 (≈ 2.07 µM) | 1.56 (≈ 4.13 µM) | 0.39 (≈ 1.03 µM) | 0.2 (≈ 0.53 µM) | 0.78 (≈ 2.07 µM) | 0.78 (≈ 2.07 µM) | 1.56 (≈ 4.13 µM) | 0.1 (≈ 0.265 µM) | 3.13 (≈ 8.29 µM) | 0.78 (≈ 2.07 µM) | 12.5 (≈ 33.1 µM) | 25 (≈ 66.2 µM) | MIC ([13]; IID977, Enterobacter cloacae IID 977): 1.56 µg/mL (≈ 4.13 µM); MIC [22]: 0.39 µg/mL (≈ 1.03 µM); MIC [23]: 0.2 µg/mL (≈ 0.53 µM)
3 | CCn1cc(C(=O)O)c(=O)c2ccc(C)nc21 [nalidixic acid] | highly effective | weak activities | weak activities | – | – | – | – | – | – | – | – | – | – | – | – | – | – | – | – | – | –
4 | CCn1cc(C(=O)O)c(=O)c2cc(F)c(N3CCCC3)c(F)c21 [Example 11, 1-Ethyl-6,8-difluoro-1,4-dihydro-4-oxo-7-(1-pyrrolidinyl)quinoline-3-carboxylic acid] | – | – | – | 0.1 (≈ 0.31 µM) | ≤ 0.05 | 0.2 (≈ 0.621 µM) | ≤ 0.05 | 0.39 (≈ 1.21 µM) | 0.39 (≈ 1.21 µM) | 1.56 (≈ 4.84 µM) | 0.1 (≈ 0.31 µM) | ≤ 0.05 | 0.39 (≈ 1.21 µM) | 0.39 (≈ 1.21 µM) | 1.56 (≈ 4.84 µM) | 0.2 (≈ 0.621 µM) | 0.39 (≈ 1.21 µM) | 0.1 (≈ 0.31 µM) | 6.25 (≈ 19.4 µM) | 6.25 (≈ 19.4 µM) | MIC ([13]; Enterobacter cloacae, IID977, Enterobacter cloacae IID 977): 1.56 µg/mL (≈ 4.84 µM); MIC [22]: 0.2 µg/mL (≈ 0.621 µM); MIC [23]: 0.2 µg/mL (≈ 0.621 µM)
